Where a SMILES comes first, the peptide text is derived from it. Bridges are numbered along the chain shown (N, C = ends). [ ]: non-standard residue; d: D form. The star is where a group is joined. hPhe(3,5-F2-4-CF3) = N[C@@H](CCc1cc(F)c(C(F)(F)F)c(F)c1)C(=O)O; hPhe(3-Cl-4-CF3) = N[C@@H](CCc1ccc(C(F)(F)F)c(Cl)c1)C(=O)O; NPrPhe(4-CF3) = CCCN[C@@H](Cc1ccc(C(F)(F)F)cc1)C(=O)O; NMeGly(cPent) = CN[C@H](C(=O)O)C1CCCC1; Aze(3S-Me) = C[C@H]1CN[C@@H]1C(=O)O; NMeD = CN[C@@H](CC(=O)O)C(=O)O; NMeL = CN[C@@H](CC(C)C)C(=O)O; αMeS = C[C@](N)(CO)C(=O)O; Morpholide = C1CN(*)CCO1; Ac5c = NC1(C(=O)O)CCCC1; Aze = O=C(O)[C@@H]1CCN1; Sar = CNCC(=O)O; Allyl = C=CC*
Tests used:
[1] = molecular target: GDP-bound NRAS wild-type protein (Homo sapiens, UniProt P01111); test: Binding to NRAS by surface plasmon resonance (SPR), KD and KD ratio to KRAS
GDP-bound NRAS wild-type protein, sequence (P01111 whole entry): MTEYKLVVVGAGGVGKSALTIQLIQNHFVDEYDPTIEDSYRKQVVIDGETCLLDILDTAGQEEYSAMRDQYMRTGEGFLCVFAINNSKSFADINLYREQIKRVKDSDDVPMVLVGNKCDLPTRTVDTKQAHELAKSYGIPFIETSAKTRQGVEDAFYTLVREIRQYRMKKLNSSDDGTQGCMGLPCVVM
Outline: (§1)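 Biotinylated GDP-bound RAS was captured at about 100–300 RU. Running buffer: HBS pH 7.4, 10 mM MgCl2, 10 µM GDP, 1 mM DTT, 0.01% Tween 20, 4% DMSO.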

HRAS wild-type protein = HRAS wild-type protein (Homo sapiens, UniProt P01112); test: Binding to HRAS by surface plasmon resonance (SPR), KD and KD ratio to KRAS
HRAS wild-type protein, sequence (P01112 whole entry): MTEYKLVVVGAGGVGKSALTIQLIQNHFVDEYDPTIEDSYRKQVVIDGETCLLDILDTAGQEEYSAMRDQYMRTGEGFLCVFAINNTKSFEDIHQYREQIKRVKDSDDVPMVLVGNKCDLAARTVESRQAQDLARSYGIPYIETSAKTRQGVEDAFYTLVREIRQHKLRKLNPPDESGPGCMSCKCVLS
Outline: as §1

[2] = molecular target: GDP-bound KRAS wild-type protein (Homo sapiens, UniProt P01116); test: Binding to KRAS by surface plasmon resonance (SPR), dissociation constant KD
GDP-bound KRAS wild-type protein, sequence (P01116 1-188 isoform P01116-2): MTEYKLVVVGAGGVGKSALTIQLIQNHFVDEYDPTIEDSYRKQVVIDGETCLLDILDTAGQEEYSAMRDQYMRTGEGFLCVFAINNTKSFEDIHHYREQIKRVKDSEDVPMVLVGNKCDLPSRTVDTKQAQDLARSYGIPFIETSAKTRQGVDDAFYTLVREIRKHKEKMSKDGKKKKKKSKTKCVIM
Outline: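 Running buffer contained 10 µM GDP and 10 mM MgCl2 to keep RAS in the GDP state, with 4% DMSO at pH 7.4. Compounds were flowed at 100 µL/min in 75 s steps of rising concentration over captured biotin-Avi RAS at 30°C. Sensorgrams were fitted 1:1 for KD.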

[3] = test system: human lung cancer strain NCI-H441; type: cell-based
Outline: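 Step one: dispense the test compound in serial DMSO dilutions. Step three: add the reagent and measure […].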

[4] = ratio of the KD value with respect to GDP-bound NRAS wild-type protein to the KD value with respect to KRAS
[5] = ratio of the KD value with respect to HRAS wild-type protein to the KD value with respect to KRAS
[6] = Single Cycle Kinetics, 1:1 binding model
[7] = ratio of KD for GDP-bound NRAS wild-type protein to KD for KRAS
[8] = ratio of KD for HRAS wild-type protein to KD for KRAS

Row | Kd [2, 6] [nM] | IC50 [3] [nM] | Kd ([2]; Single Cycle Kinetics) [nM] | Kd ([2]; 1:1 binding model) [nM] | Compound | NRAS /KRAS [1, 4] | HRAS /KRAS (HRAS wild-type protein; [5]) | NRAS /KRAS [1, 7] | HRAS /KRAS (HRAS wild-type protein; [8]) | NRAS /KRAS ([1]; ratio of KD value for GDP-bound NRAS wild-type protein to KD value for KRAS (SPR)) | HRAS /KRAS (HRAS wild-type protein; ratio of KD value for HRAS wild-type protein to KD value for KRAS (SPR))
1 | 1.9 | 44.7 | – | – | CCC[C@H]1C(=O)N[C@@H]([C@@H](C)CC)C(=O)N(C)CC(=O)N(C)[C@H]2C/C=C\CCN(C2=O)[C@@H](CC2CCCCC2)C(=O)N(C)CC(=O)N[C@@H](CCc2ccc(C(F)(F)F)c(OC)c2)C(=O)N2C[C@H](OCC)C[C@H]2C(=O)N(C)C2(CCC2)C(=O)N(C)[C@@H](C(CC)CC)C(=O)N(C)[C@H](C(=O)N(C)C)CC(=O)N1C [PP2333] | A (a compound having 10 or more and less than 20 is denoted as A) | A (a compound having 10 or more and less than 20 is denoted as A) | – | – | – | –
2 | – | 15.8 | 0.15 | – | CCO[C@@H]1C[C@H]2C(=O)NC3(CCC3)C(=O)N(C)[C@@H](C3CCCC3)C(=O)N(C)[C@H](C(=O)N(C)C)CC(=O)N(C)[C@@H](CC(C)C)C(=O)N[C@@H]([C@@H](C)CC)C(=O)N(C)CC(=O)N(C)[C@H]3CCCCCN(C3=O)[C@@H](Cc3ccc(F)cc3)C(=O)N(C)CC(=O)N[C@@H](CCc3ccc(C(F)(F)F)c(Cl)c3)C(=O)N2C1 [PP0972] | – | – | B (a compound having 3 or more and less than 10 is denoted as B) | B (a compound having 3 or more and less than 10 is denoted as B) | – | –
3 | 14 | 235 | – | – | CC[C@H](C)[C@@H]1NC(=O)[C@H](CC(C)C)N(C)C(=O)C[C@@H](C(=O)N2CCOCC2)N(C)C(=O)[C@H](C2CCC2)N(C)C(=O)C2(CCCC2)NC(=O)[C@@H]2CCCN2C(=O)[C@H](CCc2cc(F)c(C(F)(F)F)c(F)c2)NC(=O)CN(C)C(=O)[C@H](Cc2ccc(C(F)(F)F)cc2)N2CCCCC[C@@H](C2=O)N(C)C(=O)CN(C)C1=O [PP0504] | B (a compound having 3 or more and less than 10 is denoted as B) | B (a compound having 3 or more and less than 10 is denoted as B) | – | – | – | –
4 | – | 156 | 0.39 | – | CC[C@H](C)[C@@H]1NC(=O)[C@H](CC)N(C)C(=O)C[C@@H](C(=O)N2CCOCC2)N(C)C(=O)[C@H](C2CCCC2)N(C)C(=O)C2(CCCC2)NC(=O)[C@@H]2CCCN2C(=O)[C@H](CCc2ccc(C(F)(F)F)c(Cl)c2)NC(=O)CN(C)C(=O)[C@H](Cc2ccc(F)cc2)N2CCCCC[C@@H](C2=O)N(C)C(=O)CN(C)C1=O [PP0959] | – | – | B (a compound having 3 or more and less than 10 is denoted as B) | B (a compound having 3 or more and less than 10 is denoted as B) | – | –
5 | – | 527 | 7.8 | – | C=CCOC[C@]1(C)NC(=O)[C@@H]2CCCN2C(=O)[C@H](CCc2cc(F)c(C(F)(F)F)c(F)c2)NC(=O)CN(C)C(=O)[C@H](Cc2ccc(C(F)(F)F)cc2)N(CCC)C(=O)CN(C)C(=O)[C@@H]2CCN2C(=O)[C@H]([C@@H](C)CC)NC(=O)[C@H](CC(C)C)N(C)C(=O)C[C@@H](C(=O)N2CCOCC2)N(C)C(=O)[C@H](C2CCCC2)N(C)C1=O [PP0780] ([NMeL]I[Aze][Sar][NPrPhe(4-CF3)][Sar][hPhe(3,5-F2-4-CF3)]P[αMeS](Allyl)[NMeGly(cPent)][NMeD]-Morpholide; lactam N-11) | – | – | B (a compound having 3 or more and less than 10 is denoted as B) | B (a compound having 3 or more and less than 10 is denoted as B) | – | –
6 | – | 11.3 | – | 0.52 | CCCN1C(=O)CN(C)C(=O)[C@@H]2[C@@H](C)CN2C(=O)[C@H]([C@@H](C)CC)NC(=O)[C@H](CC(C)C)N(C)C(=O)C[C@@H](C(=O)N2CCOCC2)N(C)C(=O)[C@H](C2CCCC2)N(C)C(=O)C2(CCCC2)NC(=O)[C@@H]2CCCN2C(=O)[C@H](CCc2ccc(C(F)(F)F)c(Cl)c2)NC(=O)CN(C)C(=O)[C@@H]1Cc1ccc(C(F)(F)F)cc1 [PP0258] ([NMeL]I[Aze(3S-Me)][Sar][NPrPhe(4-CF3)][Sar][hPhe(3-Cl-4-CF3)]P[Ac5c][NMeGly(cPent)][NMeD]-Morpholide; lactam N-11) | – | – | B (a compound having 3 or more and less than 10 is denoted as B) | C (A compound having a KD ratio of 0.1 or more and less than 3 is denoted as C) | – | –
7 | 1 | 65.7 | – | – | CCO[C@@H]1C[C@H]2C(=O)NC3(CCC3)C(=O)N(C)[C@@H](C3CCCC3)C(=O)N(C)[C@H](C(=O)N3CCOCC3)CC(=O)N(C)[C@@H](CC3CCCCC3)C(=O)N[C@@H]([C@@H](C)CC)C(=O)N(C)CC(=O)N(C)[C@H]3CCCCCN(C3=O)[C@@H](Cc3ccc(C(F)(F)F)cc3)C(=O)N(C)CC(=O)N[C@@H](CCc3cc(F)c(C(F)(F)F)c(F)c3)C(=O)N2C1 [PP0686] | B (a compound having 3 or more and less than 10 is denoted as B) | B (a compound having 3 or more and less than 10 is denoted as B) | – | – | – | –
8 | 26 | > 1300 | – | – | CCO[C@@H]1C[C@H]2C(=O)NC3(CCC3)C(=O)N(C)[C@@H](C3CCCC3)C(=O)N(CCC3CCCC3)[C@H](C(=O)N3CCOCC3)CC(=O)N(C)[C@@H](CC(C)C)C(=O)N[C@@H]([C@@H](C)CC)C(=O)N(C)CC(=O)N(C)[C@H]3CCCCCN(C3=O)[C@@H](Cc3ccc(C(F)(F)F)cc3)C(=O)N(C)CC(=O)N[C@@H](CCc3cc(F)c(C(F)(F)F)c(F)c3)C(=O)N2C1 [PP0641] | A (a compound having 10 or more and less than 20 is denoted as A) | A (a compound having 10 or more and less than 20 is denoted as A) | – | – | – | –
9 | – | 38.1 | – | 0.46 | CCO[C@@H]1C[C@H]2C(=O)N(C)C3(CC(C)(C)C3)C(=O)N(C)[C@@H](C(CC)CC)C(=O)N(C)[C@H](C(=O)N(C)C)CC(=O)N(C)[C@@H](COC)C(=O)N[C@@H]([C@@H](C)CC)C(=O)N(C)CC(=O)N(C)[C@H]3C/C=C\CCN(C3=O)[C@@H](Cc3ccc(C)cc3)C(=O)N(C)CC(=O)N[C@@H](CCc3ccc(Cl)c(Cl)c3)C(=O)N2C1 [PP2810] | – | – | AA (a compound having 20 or more is denoted as AA) | A (a compound having 10 or more and less than 20 is denoted as A) | – | –
10 | – | 61.4 | – | 0.6 | CCO[C@@H]1C[C@H]2C(=O)NC3(CC(C)(C)C3)C(=O)N(C)[C@@H](C3CCCC3)C(=O)N(C)[C@H](C(=O)N(C)C)CC(=O)N(C)[C@@H]([C@@H](C)OC)C(=O)N[C@@H]([C@@H](C)CC)C(=O)N3CCC[C@H]3C(=O)N(C)[C@H]3C/C=C\CCN(C3=O)[C@@H](Cc3ccc(C)cc3)C(=O)N(C)CC(=O)N[C@@H](CCc3ccc(C(F)(F)F)c(OC)c3)C(=O)N2C1 [PP3213] | – | – | A (a compound having 10 or more and less than 20 is denoted as A) | A (a compound having 10 or more and less than 20 is denoted as A) | – | –
11 | – | 8.5 | – | 0.17 | CCO[C@@H]1C[C@H]2C(=O)NC3(CC(C)(C)C3)C(=O)N(C)[C@@H](C3CCCC3)C(=O)N(C)[C@H](C(=O)N(C)C)CC(=O)N(C)[C@H]3CCCCC/C=C/c4ccc(cc4)C[C@@H](C(=O)N(C)CC(=O)N[C@@H](CCc4ccc(Cl)c(Cl)c4)C(=O)N2C1)N1CC/C=C\C[C@@H](C1=O)N(C)C(=O)CN(C)C(=O)[C@H]([C@@H](C)CC)NC3=O [PP3057] | – | – | A (a compound having 10 or more and less than 20 is denoted as A) | B (a compound having 3 or more and less than 10 is denoted as B) | – | –
12 | 0.38 | 38 | – | – | CCO[C@@H]1C[C@H]2C(=O)NC3(CC(C)(C)C3)C(=O)N(C)[C@@H](C(CC)CC)C(=O)N(C)[C@H](C(=O)N3CCCC3)CC(=O)N(C)[C@@H](COC)C(=O)N[C@@H]([C@@H](C)CC)C(=O)N(C)CC(=O)N(C)[C@H]3C/C=C\CCN(C3=O)[C@@H](Cc3ccc(C)cc3)C(=O)N(C)CC(=O)N[C@@H](CCc3cc(F)c(C(F)(F)F)c(F)c3)C(=O)N2C1 [PP2139] | AA (a compound having 20 or more is denoted as AA) | A (a compound having 10 or more and less than 20 is denoted as A) | – | – | – | –
13 | – | 11.6 | – | 0.092 | CCO[C@@H]1C[C@H]2C(=O)NC3(CC(C)(C)C3)C(=O)N(C)[C@@H](C3CCCC3)C(=O)N(C)[C@H](C(=O)N(C)CC)CC(=O)N(C)[C@@H]([C@@H](C)OC)C(=O)N[C@@H]([C@@H](C)CC)C(=O)N(C)CC(=O)N(C)[C@H]3C/C=C\CCN(C3=O)[C@@H](Cc3ccc(C)cc3)C(=O)N(C)CC(=O)N[C@@H](CCc3cc(F)c(C(F)(F)F)c(F)c3)C(=O)N2C1 [PP3178] | – | – | A (a compound having 10 or more and less than 20 is denoted as A) | A (a compound having 10 or more and less than 20 is denoted as A) | – | –
14 | 0.091 | 5 | – | – | CCC[C@H]1C(=O)N[C@@H]([C@@H](C)CC)C(=O)N(C)CC(=O)N(C)[C@H]2C/C=C\CCN(C2=O)[C@@H](Cc2ccc(C)cc2)C(=O)N(C)CC(=O)N[C@@H](CCc2ccc(C(F)(F)F)c(OC)c2)C(=O)N2C[C@@H](C)C[C@H]2C(=O)NC2(CCC2)C(=O)N(C)[C@@H](C2CCCC2)C(=O)N(C)[C@H](C(=O)N(C)C)CC(=O)N1C [PP1857] | – | – | – | – | A (a compound having 10 or more and less than 20 is denoted as A) | B (a compound having 3 or more and less than 10 is denoted as B)
